# Measured values: the supplement of paper PMC4862054
# Tests used:
# Hs578T = experiment: drug sensitivity score (DSS), CellTiter-Blue viability (DSS (AUC-based score)); higher = stronger viability inhibition; extreme values may be limits of the assay; settings: incubation time: 72 h
# Description: (§1)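 DSRT with the CellTiter-Blue (resazurin reduction) viability readout, fluorescence 560/590 nm, 72 h incubation. Plates were normalised to DMSO and benzethonium chloride controls. DSS is computed from the area under the fitted dose-response curve (5 or 9 concentrations).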
# DU-4475 = experiment: as above; settings: incubation time: 72 h
# Description: as §1
# HCC1143 = experiment: as above; settings: incubation time: 72 h
# Description: as §1
# BT-474 = experiment: as above; settings: incubation time: 72 h
# Description: as §1
# MDA-MB-453 = experiment: as above; settings: incubation time: 72 h
# Description: as §1
# MDA-MB-231 = experiment: as above; settings: incubation time: 72 h
# Description: as §1
# HCC1599 = experiment: as above; settings: incubation time: 72 h
# Description: as §1
# CAL-120 [1] = experiment: as above; settings: incubation time: 72 h
# Description: as §1
# MDA-MB-436 = experiment: as above; settings: incubation time: 72 h
# Description: as §1
# MDA-MB-468 [2] = experiment: as above; settings: incubation time: 72 h
# Description: as §1
# BT-549 = experiment: as above; settings: incubation time: 72 h
# Description: as §1
# SK-BR-3 = experiment: as above; settings: incubation time: 72 h
# Description: as §1
# HCC1937 = experiment: as above; settings: incubation time: 72 h
# Description: as §1
# MFM-223 = experiment: as above; settings: incubation time: 72 h
# Description: as §1
# CAL-85-1 = experiment: as above; settings: incubation time: 72 h
# Description: as §1
# CAL-51 = experiment: as above; settings: incubation time: 72 h
# Description: as §1
# HDQ-P1 = experiment: as above; settings: incubation time: 72 h
# Description: as §1
# CAL-148 = experiment: as above; settings: incubation time: 72 h
# Description: as §1
# MDA-MB-468 [3] = settings: 72 h
# How it was run: (§2)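 In this assay, breast cancer cell lines spent 72 h with compound at 5 concentrations in 10-fold steps over a compound-specific 10,000-fold range. The first readout was cell death by CellTox Green fluorescence, and the second was viability by CellTiter-Glo luminescence, each normalised per plate to 0.1 % DMSO and a positive kill control. EC50 came from the dose-response curves, censored at the top concentration.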
# CAL-120 [4] = settings: 72 h
# How it was run: as §2
SMILES,drug sensitivity score (Hs578T),drug sensitivity score (DU-4475),drug sensitivity score (HCC1143),drug sensitivity score (BT-474),drug sensitivity score (MDA-MB-453),drug sensitivity score (MDA-MB-231),drug sensitivity score (HCC1599),drug sensitivity score (CAL-120 [1]),drug sensitivity score (MDA-MB-436),drug sensitivity score (MDA-MB-468 [2]),drug sensitivity score (BT-549),drug sensitivity score (SK-BR-3),drug sensitivity score (HCC1937),drug sensitivity score (MFM-223),drug sensitivity score (CAL-85-1),drug sensitivity score (CAL-51),drug sensitivity score (HDQ-P1),drug sensitivity score (CAL-148),"EC50, CellTiter-Glo (MDA-MB-468 [3]) [nM]","EC50, CellTiter-Glo (CAL-120 [4]) [nM]"
CN(C)C/C=C/C(=O)Nc1cc2c(Nc3ccc(F)c(Cl)c3)ncnc2cc1O[C@H]1CCOC1 [Afatinib],4.14,0,0,23.5,21.3,7.75,0,4.96,3.02,13,5.88,31.5,7.41,3.47,13.1,1.9,15.3,5.66,158,–
COc1cc(Nc2ncc3c(n2)-c2ccc(Cl)cc2C(c2c(F)cccc2OC)=NC3)ccc1C(=O)O [Alisertib],–,–,–,–,–,–,–,–,–,–,–,–,–,–,–,–,–,–,26.9,338
CN1CC[C@H](c2c(O)cc(O)c3c(=O)cc(-c4ccccc4Cl)oc23)[C@H](O)C1 [Alvocidib],22.8,22.4,17.9,14.5,19.6,19.6,17.4,17.8,15.6,17.6,17.2,23.9,19.1,19.2,20.8,19.9,19,20.3,261,167
Nc1nc(Cl)nc2c1ncn2[C@H]1C[C@H](O)[C@@H](CO)O1 [Cladribine],0,1.23,3.82,0,0,7.23,0,3.94,1.7,0,3.51,1.21,8.9,0,0,0.39,0,0.812,> 1000,445
Nc1ccn([C@@H]2O[C@H](CO)[C@@H](O)[C@@H]2O)c(=O)n1 [Cytarabine],11.6,12.3,6.95,0,6.62,7.18,3,7.69,4.91,6.23,7.65,8.27,13.9,0,3.04,15.4,0,19.2,618,> 10000
Cc1c2oc3c(C)ccc(C(=O)N[C@@H]4C(=O)N[C@H](C(C)C)C(=O)N5CCC[C@H]5C(=O)N(C)CC(=O)N(C)[C@@H](C(C)C)C(=O)O[C@@H]4C)c3nc-2c(C(=O)N[C@@H]2C(=O)N[C@H](C(C)C)C(=O)N3CCC[C@H]3C(=O)N(C)CC(=O)N(C)[C@@H](C(C)C)C(=O)O[C@@H]2C)c(N)c1=O [Dactinomycin],33.6,38.4,27.4,17.7,30.5,30.8,20.8,30.8,27.9,31.4,32.8,28.9,21.8,20.1,30.9,29.7,28.5,34.1,1.54,10.2
COc1cccc2c1C(=O)c1c(O)c3c(c(O)c1C2=O)C[C@@](O)(C(=O)CO)C[C@@H]3O[C@H]1C[C@H](N)[C@H](O)[C@H](C)O1 [Doxorubicin],9.11,12.9,8.86,4.12,4.31,9.57,3.59,11.3,8.25,9.27,7.93,13.3,11.8,2.94,5.11,8.73,7,14.2,139,872
S=c1[nH]cnc2nc[nH]c12 [Mercaptopurine],0,0,0,0,0,0,0,4.1,0,5.53,0,0,4.84,0,0,0.87,0,0,–,4710
CCN1CCN(c2ccc(Nc3cc(N(C)C(=O)Nc4c(Cl)c(OC)cc(OC)c4Cl)ncn3)cc2)CC1 [NVP-BGJ398],–,–,–,–,–,–,–,–,–,–,–,–,–,–,–,–,–,–,–,252
COc1cccc2cc(-c3nc([C@H]4CC[C@H](C(=O)O)CC4)n4ncnc(N)c34)[nH]c12 [OSI-027],9.33,6.08,7.21,9.76,13.7,6.73,5.99,8.32,13.1,6.33,6.62,21.7,8.55,15.2,9.36,9.33,14.9,9.33,4990,3850
N#CC[C@H](C1CCCC1)n1cc(-c2ncnc3[nH]ccc23)cn1 [Ruxolitinib],0,0,0,0,0,0,0,0,0,0,0,0,1.92,0,0,0,0,0,> 10000,1670
C=CC[C@@H]1/C=C(\C)C[C@H](C)C[C@H](OC)[C@H]2O[C@@](O)(C(=O)C(=O)N3CCCC[C@H]3C(=O)O[C@H](/C(C)=C/[C@@H]3CC[C@@H](O)[C@H](OC)C3)[C@H](C)[C@@H](O)CC1=O)[C@H](C)C[C@@H]2OC [Tacrolimus],0,0,0,0,0,0,0,0,0,0,0,0,0,0,0,0,0,0,–,–
C=CCNC1=C2C[C@@H](C)C[C@H](OC)[C@H](O)[C@@H](C)/C=C(\C)[C@H](OC(N)=O)[C@@H](OC)/C=C\C=C(/C)C(=O)NC(=CC1=O)C2=O [Tanespimycin],20.5,28.2,24.8,21.3,32.6,9.87,16.3,14.8,25.2,0,24.3,29.2,18.2,25.8,15.7,16.9,19.3,22.4,532,269
CO[C@H]1C[C@@H]2CC[C@@H](C)[C@@](O)(O2)C(=O)C(=O)N2CCCC[C@H]2C(=O)O[C@H]([C@H](C)C[C@@H]2CC[C@@H](OC(=O)C(C)(CO)CO)[C@H](OC)C2)CC(=O)[C@H](C)/C=C(\C)[C@@H](O)[C@@H](OC)C(=O)[C@H](C)C[C@H](C)/C=C/C=C/C=C/1C [Temsirolimus],17.3,15.7,11.1,12.1,31.8,0,0,16.4,5.67,13.1,18.1,17.9,0,20.8,14.7,22.2,7.62,25.6,0.15,1.08
C[C@]1(c2nc3c(C(N)=O)cccc3[nH]2)CCCN1 [Veliparib],0,0,0,0,0,0,0,0,0,0,0,0,0,0,0,0,0,0,–,–
CC[C@]1(O)C[C@@H]2CN(CCc3c([nH]c4ccccc34)[C@@](C(=O)OC)(c3cc4c(cc3OC)N(C)[C@H]3[C@@](O)(C(=O)OC)[C@H](OC(C)=O)[C@]5(CC)C=CCN6CC[C@]43[C@@H]65)C2)C1 [Vinblastine],30.7,13.7,19.4,21.8,20,27.7,7.99,32,18.7,21.6,25.2,35.2,32,13.1,17.8,16.1,18.2,18.7,2.95,2.04
CS(=O)(=O)c1ccc(C(=O)Nc2ccc(Cl)c(-c3ccccn3)c2)c(Cl)c1 [Vismodegib],0,0,0,0,0,0,0,0,4.6,0,0,0,1.01,0,0,0,0,0,–,–
